SMILES strings stand for the structures. Like-named read-outs stand apart in the source and are kept apart here.

In experiment [1] the test system is human DHFR (hDHFR). The conditions noted are these: relative to TMP; cited from earlier work.
In experiment [2] the test system is poly(dG-dC)2 (DNA, polymer) GC. Briefly: ethidium bromide displacement fluorescence. The conditions noted are these: Na+ 1 M; 0.1 M Tris pH 8.0, room temperature; ethidium displaced; apparent.
The test system of experiment [3] is poly(dA-dT)2 (DNA, polymer) AT. Briefly: ethidium bromide displacement fluorescence. The conditions noted are these: Na+ 1 M; 0.1 M Tris pH 8.0, room temperature; ethidium displaced; apparent.
Experiment [4] addresses T1, recombinant human DHFR enzyme (Homo sapiens, UniProt P00374).
T1 construct: purchased
T1 sequence (P00374 1-187): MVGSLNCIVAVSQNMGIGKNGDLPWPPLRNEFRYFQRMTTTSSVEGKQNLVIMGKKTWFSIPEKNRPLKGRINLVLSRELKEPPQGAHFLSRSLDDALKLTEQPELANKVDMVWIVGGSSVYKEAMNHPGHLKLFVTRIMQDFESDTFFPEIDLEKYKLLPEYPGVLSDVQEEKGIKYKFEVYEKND
Briefly: Dihydrofolate reductase (DHFR) inhibition assay. It counts as biochemical. As to conditions: pH 7.5, 22 °C, absorbance 340 nm. How it is done: The procedure for detection of DHFR activity inhibition included preparation of a test mixture in a 1.0 mL quartz cuvette for the spectrophotometric method. Assay buffer—1× for DHFR (pH 7.5) and 1.5 × 10^−3 units of DHFR were added to the appropriate tube and thoroughly mixed. […] After mixing accurately, the reaction was initiated by adding 10 mM dihydrofolic acid (5 µL for each reaction) and a kinetics program was immediately started. The changes in absorbance (ΔOD/ min) were measured by the spectrophotometer Specord 200Plus (Analytikjena, Germany) at 340 nm and 22 °C, and the kinetic program (reading every 15 s for 2.5 min) according to the instructions supplied with the set and recommended by the producer.

The subject of experiment [5] is poly(dG-dC)2. Briefly: Ethidium displacement assay, DNA-binding constants. As to conditions: apparent association constant. As to the method: (§1) The fluorescence of DNA solutions (calf thymus DNA, T4 coliphage DNA, poly(dA-dT)2, and poly(dG-dC)2 with the investigated compound (final concentrations 10, 50, 100 µM) was measured by the fluorescence spectrophotometer Infinite M200 TECAN at room temperature according to the procedure described above. Then, the concentration, which reduced fluorescence to 50% was determined for each compound. The data points of fluorescence intensity were fitted to the theoretical curves, with one or two different iterative nonlinear least squares computer routines. The apparent binding constant was calculated from KEtBr [EtBr] = Kapp [drug], where [drug] = the concentration of the tested compound at 50% reduction of fluorescence and KEtBr and [EtBr] are known. TMP and MTX were also investigated.

The test system of experiment [6] is T4 coliphage DNA. Briefly: Ethidium displacement assay, DNA-binding constants. As to conditions: apparent association constant. As to the method: as §1
The subject of experiment [7] is poly(dA-dT)2. Briefly: Ethidium displacement assay, DNA-binding constants. The conditions noted are these: apparent association constant. As to the method:
as §1

Experiment [8] relates to calf thymus DNA. Briefly: Ethidium displacement assay, DNA-binding constants. As to conditions: apparent association constant. As to the method: as §1
Experiment [9] concerns pBR322 plasmid. Kind of experiment: Ethidium bromide assay, DNA-binding effects on plasmid pBR322. The conditions noted are these: for Decrease of Fluorescence: 10 μM compound, plasmid pBR322 with ethidium bromide, 25 °C 30 min, % fluorescence relative to controls (no drug = 100%); for Binding to DNA (pBR322 plasmid), in words: ethidium bromide assay. As to the method: Each well of a 96-well plate was loaded with Tris buffer containing ethidium bromide (0.1 M Tris, 1 M NaCl, pH 8.0, 0.5 mM EtBr final concentration, 100 μL). […] Fluorescence readings are reported as % fluorescence relative to the controls.

In experiment [10] the test system is DHFR. Set-up: method as in PMID 30991189. As to conditions: cited from earlier work.
For experiment [11], the system named is poly(dG-dC)2. Set-up: method as in PMID 2540332. The conditions noted are these: KEtBr, known constant of ethidium bromide; cited from earlier work.
Experiment [12] concerns poly(dA-dT)2. Also on record: method as in PMID 2540332. As to conditions: KEtBr, known constant of ethidium bromide; cited from earlier work.
Experiment [13] deals with calf thymus DNA. Also on record: method as in PMID 2540332. As to conditions: KEtBr, known constant of ethidium bromide; cited from earlier work.
Experiment [14] deals with T4 coliphage DNA. Set-up: method as in PMID 2540332. The conditions noted are these: KEtBr, known constant of ethidium bromide; cited from earlier work.
Experiment [15] relates to hDHFR. Also on record: method as in PMID 28152430. The conditions noted are these: Wang's compounds; read-out: IC50 (Figure 1); cited from earlier work.
Experiment [16] concerns pBR322 plasmid. Also on record: method as in PMID 27008800. The conditions noted are these: same conditions; cited from earlier work.
Setting [17] is: Sabry's compounds, read-out: IC50 (Figure 1).
Where [18] appears, read: read-out: DHFR inhibitory potency IC50.

As to `CCc1nc(N)nc(N)c1C#CCc1cc(OC)c(OC)c(OC)c1` [C], the “potency greater than TMP” value in experiment [1] is 3500 fold.
As to `COc1cc(C(=O)Nc2cnc(N)nc2)cc(OC)c1OC` [Compound 1, N-(2-Aminopyrimidin-5-yl)-3,4,5-Trimethoxybenzamide], the values for the Kapp in experiment [2] and in experiment [3] were 1.3 ± 0.2 × 10^5 M^-1 and 11.7 ± 0.2 × 10^5 M^-1, respectively. For the same compound, in experiment [4], the 50% inhibitory concentration (IC50) was 21.8 µM. Also, the “Kapp Poly (dG-dC)2” value in experiment [5] turned out to be 130000 M⁻¹. For the same compound, the “Kapp T4 DNA” value in experiment [6] worked out at 290000 M⁻¹. For the same compound, the “Kapp Poly (dA-dT)2” value in experiment [7] was found to be 1.17e+06 M⁻¹. Moreover, the “Kapp Calf Thymus DNA” value in experiment [8] is 240000 M⁻¹. In addition, in experiment [9], the “Decrease of Fluorescence” value came out at 71.43%.
As to `COc1cc(CC(=O)Nc2cnc(N)nc2)cc(OC)c1OC` [Compound 2, N-(2-Aminopyrimidin-5-yl)-2-(3,4,5-Trimethoxyphenyl)Acetamide], the Kapp in experiment [2] was 0.8 ± 0.2 × 10^5 M^-1; in experiment [3], 3.9 ± 0.2 × 10^5 M^-1. In [4], the IC50 worked out at 0.99 µM. For the same compound, in experiment [5], the “Kapp Poly (dG-dC)2” value came out at 80000 M⁻¹. The “Kapp T4 DNA” value in experiment [6] was found to be 110000 M⁻¹. In addition, the “Kapp Poly (dA-dT)2” value in [7] was 390000 M⁻¹. In experiment [8], the “Kapp Calf Thymus DNA” value came to 440000 M⁻¹. Also, the “Decrease of Fluorescence” value in [9] is 45.18%.
For `COc1cc(CCC(=O)Nc2cnc(N)nc2)cc(OC)c1OC` [Compound 3, N-(2-Aminopyrimidin-5-yl)-3-(3,4,5-Trimethoxyphenyl)Propanamide], the Kapp in experiment [2] was 0.5 ± 0.2 × 10^5 M^-1; in experiment [3] it was 3.6 ± 0.2 × 10^5 M^-1. Further, in experiment [5], the “Kapp Poly (dG-dC)2” value came out at 50000 M⁻¹. Moreover, the “Kapp T4 DNA” value in experiment [6] was found to be 780000 M⁻¹. In experiment [7], the “Kapp Poly (dA-dT)2” value turned out to be 360000 M⁻¹. For the same compound, the “Kapp Calf Thymus DNA” value in [8] came out at 370000 M⁻¹. Moreover, in [9], the “Decrease of Fluorescence” value was 69.92%.
Take `COc1cc(C(=O)Nc2ccc(N)cc2)cc(OC)c1OC` [Compound 4, N-(4-Aminophenyl)-3,4,5-Trimethoxybenzamide]: the Kapp in experiment [2] was 1.6 ± 0.2 × 10^5 M^-1; in experiment [3], 7.9 ± 0.2 × 10^5 M^-1. The IC50 in experiment [4] was determined as 1.02 µM. For the same compound, in experiment [5], the “Kapp Poly (dG-dC)2” value was determined as 160000 M⁻¹. Besides, the “Kapp T4 DNA” value in [6] came out at 390000 M⁻¹. Moreover, the “Kapp Poly (dA-dT)2” value in experiment [7] came out at 790000 M⁻¹. Also, the “Kapp Calf Thymus DNA” value in [8] stood at 590000 M⁻¹. For the same compound, the “Decrease of Fluorescence” value in experiment [9] was 80.43%.
`COc1cc(CC(=O)Nc2ccc(N)cc2)cc(OC)c1OC` [Compound 5, N-(4-Aminophenyl)-2-(3,4,5 Trimethoxyphenyl)Acetamide]: the figures for the Kapp in experiment [2] and in experiment [3] were 3.0 ± 0.2 × 10^5 M^-1 and 14 ± 0.2 × 10^5 M^-1, respectively. For the same compound, the IC50 in experiment [4] worked out at 15.9 µM. Also, in experiment [5], the “Kapp Poly (dG-dC)2” value was 300000 M⁻¹. Besides, in experiment [6], the “Kapp T4 DNA” value came out at 680000 M⁻¹. Besides, the “Kapp Poly (dA-dT)2” value in [7] came to 1.4e+06 M⁻¹. In experiment [8], the “Kapp Calf Thymus DNA” value was found to be 520000 M⁻¹. In [9], the “Decrease of Fluorescence” value came out at 69.17%.
For the compound `COc1cc(CCC(=O)Nc2ccc(N)cc2)cc(OC)c1OC` [Compound 6, N-(4-Aminophenyl)-3-(3,4,5-Trimethoxyphenyl)Propanamide], the Kapp in [2] was 1.1 ± 0.2 × 10^5 M^-1; in experiment [3], 4.2 ± 0.2 × 10^5 M^-1. For the same compound, the IC50 in [4] turned out to be 15.1 µM. Further, in experiment [5], the “Kapp Poly (dG-dC)2” value was 110000 M⁻¹. For the same compound, in [6], the “Kapp T4 DNA” value turned out to be 90000 M⁻¹. Also, the “Kapp Poly (dA-dT)2” value in [7] was found to be 420000 M⁻¹. The “Kapp Calf Thymus DNA” value in experiment [8] worked out at 460000 M⁻¹. Moreover, in experiment [9], the “Decrease of Fluorescence” value worked out at 71.43%.
As to `COc1ccc(C(=O)Nc2ccc3nc(SC)n(-c4ccc(OC)cc4)c(=O)c3c2)cc1` [D], the figures for the IC50 in [10] (setting [17]) and in experiment [10] (setting [18]) were 200 µM and 0.2 µM, respectively.
Take `COc1ccc(-n2c(SC)nc3ccc(NC(=O)C4CCCS4)cc3c2=O)cc1` (stereo not drawn) [E]: in experiment [10] (setting [17]), the concentration for half-maximal inhibition (IC50) was 200 µM.
As to `CC[n+]1c(-c2ccccc2)c2cc(N)ccc2c2ccc(N)cc21` [EtBr, Ethidium bromide], the “Kapp Poly (dG-dC)2” value in experiment [11] is 9.9e+06 M⁻¹. For the same compound, the “Kapp Poly (dA-dT)2” value in experiment [12] was 95 ^b* × 10^5 M^−1. Besides, in experiment [13], the “Kapp Calf Thymus DNA” value was 1e+07 M⁻¹. For the same compound, the “Kapp T4 DNA” value in experiment [14] is 1e+07 M⁻¹.
For the compound `COc1ccc(CCc2ccc3nc(N)nc(N)c3n2)cc1` [F], the IC50 in experiment [15] is 760 µM; in experiment [10] (setting [18]), 0.2 µM.
Consider `COc1cccc(CCc2ccc3nc(N)nc(N)c3n2)c1` [G], for which the IC50 in experiment [15] is 450 µM.
Turning to `COc1cc(CCc2ccc3nc(N)nc(N)c3n2)cc(OC)c1OC` [H], the half-maximal inhibitory concentration (IC50) in experiment [15] was 290 µM.
`CN(Cc1cnc2nc(N)nc(N)c2n1)c1ccc(C(=O)N[C@@H](CCC(=O)O)C(=O)O)cc1` [MTX, methotrexate, reference compound]: in experiment [9], the “Decrease of Fluorescence” value is recorded as 100% and the “Binding to DNA (pBR322 plasmid), in words” value is given as “do not bind to DNA”. For the same compound, in [10] (setting [18]), the IC50 was […].
In the case of `Cn1cc(NC(=O)c2cc(NC(=O)CN=C(N)N)cn2C)cc1C(=O)NCCC(=N)N` [NT, netropsin, reference compound], the Kapp in experiment [2] is 250000 M⁻¹; in experiment [3], 8.75e+07 M⁻¹. Moreover, the “DNA-binding effect (fluorescence)” value in experiment [16] is 74%. The “Kapp Poly (dG-dC)2” value in experiment [5] came to 250000 M⁻¹. Further, the “Kapp T4 DNA” value in experiment [6] was 830000 M⁻¹. For the same compound, the “Kapp Poly (dA-dT)2” value in [7] amounted to 8.75e+07 M⁻¹. Besides, in experiment [8], the “Kapp Calf Thymus DNA” value was 870000 M⁻¹. The “Decrease of Fluorescence” value in [9] is recorded as 74%.
As for `COc1cc(Cc2cnc(N)nc2N)cc(OC)c1OC` [TMP, 2,4-diamino-5-(3,4,5-trimethoxybenzyl) pyrimidine, reference compound], in experiment [9], the “Decrease of Fluorescence” value is listed as 100% and the “Binding to DNA (pBR322 plasmid), in words” value was “do not bind to DNA”.

By IC50 is commonly meant the concentration at which inhibition is half-maximal.

The record behind these values is paper PMC6983048 (Molecules, 2019).
